Assays:
mice (C57BL/6) = assay: Forced swimming test (FST); format: in vivo, mouse; details: C57BL/6 mice, oral; DCS alone 10 mg/kg, pentoxifylline alone 80 mg/kg, combination DCS 10 mg/kg + pentoxifylline 10, 20, 80, 160 mg/kg; FST an hour after administration; immobility time in last 4 min of 6 min
Protocol: In order to test an effect of reducing depression depending on administration of the composite composition of the present invention, mice were performed to a forced swimming test (FST). The FST, which is to measure a coping strategy for acute stress that inevitably occurs, is an animal behavioral experiment commonly used to measure antidepressant effects. To confirm the effect of reducing depression by combined administration of D-cycloserine (DCS) and pentoxifylline (Pen), each group of mice was administered orally with the vehicle (DW 5 ml/kg), DCS (administered alone at 10 mg/kg), pentoxifylline (administered alone at 80 mg/kg) and DCS+pentoxifylline (DCS 10 mg/kg and pentoxifylline 10, 20, 80, 160 mg/kg combination treatment group). After administration, the forced swimming test (FST) that measures depression-like behavior was performed on the mice. Specifically, each mice group (C57BL/6) was individually placed in a 3 L Pyrex beaker (13 cm in diameter, 24 cm in height), and the beakers were filled with 26° C. of water up to a depth of 9 cm. All mice were forced to swim for 6 minutes, and immobility time was measured for the last 4 minutes of the experiment. The immobility time is defined as the […] time taken while the mouse is floating without struggling or taking only the movement required for keeping the mouse's head above the water surface.

mice (C57BL6) = assay: Tail suspension test (TST); format: in vivo, mouse; details: DCS alone 10 mg/kg, pentoxifylline alone 80 mg/kg, combination DCS 10 mg/kg + pentoxifylline 10, 20, 80, 160 mg/kg, TST 1 hour after administration, immobility time over 6 min
Description: In order to test an effect of reducing depression depending on administration of the composite composition of the present invention, mice were subjected to a tail suspension test (TST). The TST, which is to measure a stress in a rodent animal model, is based on the behavior of an experimental animal facing immobile posture in the face of short-term, irreversible stress. In the technical field of the present invention, the TST is used to measure the effect of antidepressant. To confirm the effect of reducing depression by combined administration of D-cycloserine (DCS) and pentoxifylline (Pen), DCS, Pen alone or a composite composition were administered to all groups of mice (C57BL6). Each group of mice was administered with the vehicle (DW 5 ml/kg), DCS (administered alone at 10 mg/kg), pentoxifylline (administered alone at 80 mg/kg), and DCS+pentoxifylline (DCS 10 mg/kg and pentoxifylline 10, 20, 80, 160 mg/kg combination treatment group). After 1 hour, the tail suspension test (TST) that measures depression-like behavior was performed on the mice. […] The experiment started as soon as the mouse was hung, and the immobility time was measured for 6 minutes after the start of the experiment. […]

Row | SMILES | immobility in FST compared to the control group administered with the vehicle (mice (C57BL/6)) | immobility in TST compared to the control group administered with the vehicle (mice (C57BL6))
1 | CC(=O)CCCCn1c(=O)c2c(ncn2C)n(C)c1=O [pentoxifylline] | did not show significantly different in immobility | did not show statistical significance
2 | N[C@@H]1CONC1=O [DCS, D-cycloserine] | did not show significantly different in immobility | did not show statistical significance
